Experimental data from patent US20250059610A1, “METHODS OF TREATING TUMOR” (priority 2017, published 2025).

Legend:
[1] = test system: stage IV or recurrent NSCLC; test: Phase 3 study of first-line nivolumab versus platinum-based chemotherapy: efficacy; type: in vivo, human
From the text: The primary endpoint was progression-free survival (PFS) per blinded independent central review in patients with ≥5% PD-L1 expression.
Eligible adult patients had histologically confirmed squamous or nonsquamous stage IV/recurrent NSCLC, ECOG PS 0-1, and measurable disease per RECIST 1.1,^15 and had received no prior systemic anticancer therapy as primary therapy for advanced or metastatic disease. Patients with central nervous system metastases were eligible if adequately treated and neurologically returned to baseline ≥2 weeks before randomization. Eligible patients had to be off corticosteroids or on a stable or decreasing dose of ≤10 mg daily prednisone (or equivalent). […] Patients with an autoimmune disease or known EGFR mutations or ALK translocations sensitive to available targeted therapy were excluded. Only patients with ≥1% PD-L1 expression were randomized.
(§1) Maintenance pemetrexed was allowed in patients with nonsquamous NSCLC who had stable disease or response after cycle 4. […] Concomitant systemic corticosteroid treatment (<3-week courses) was allowed for non-autoimmune conditions, including but not limited to treatment-related adverse events (AEs) with a potential immunologic cause.
Randomization was stratified by PD-L1 expression (<5% vs. ≥5%) and tumor histology (squamous vs. nonsquamous).
The primary endpoint was PFS based on assessment by blinded independent central review (BICR) in patients with ≥5% PD-L1 expression. Secondary endpoints included PFS per BICR among all randomized patients (≥1% PD-L1 expression), OS among patients with ≥5% PD-L1 expression and among all randomized patients, and ORR per BICR among patients with ≥5% PD-L1 expression.
(§2) Tumor response was assessed every 6 weeks until week 48 and every 12 weeks thereafter. Safety assessments included the recording of AEs, graded according to the National Cancer Institute Common Terminology Criteria for Adverse Events, version 4.0.
For efficacy analyses, patients were grouped according to TMB tertile distribution.
Comparison of PFS and OS between treatment groups was performed by two-sided log-rank tests stratified by PD-L1 expression level (≥5% vs. <5%; for endpoints in all randomized patients) and tumor histology. A stratified Cox proportional-hazards model including the randomized treatment arm as a single covariate was used to estimate HRs and their associated 95% CIs. The Kaplan-Meier method was used to estimate survival curves. ORRs were compared between treatment arms with a two-sided, stratified Cochran-Mantel-Haenszel test. The Clopper-Pearson method was used to estimate ORRs and their exact 95% CIs.

[2] = Phase 3 study of first-line nivolumab versus platinum-based chemotherapy: safety (adverse events)
Description: as §1, §2

[3] = test system: recurrent small cell lung cancer (SCLC); test: Clinical trial of nivolumab alone or with ipilimumab in SCLC, exploratory TMB analysis; type: in vivo, human; conditions: ITT patients
From the text: Subjects were selects who had previously been diagnosed with SCLC, and who had previously received at least one prior platinum-containing regimen (FIG. 23).
The primary objective was to measure the objective response rate (ORR) by per RECIST v1.1. Secondary objectives included monitoring safety, overall survival (OS), progression free survival (PFS), and duration of response (DOR). Prespecified exploratory objectives included biomarker analysis and health status using the EQ-5D instrument.
TMB was determined by whole exome sequencing, using an Illumina HiSeq 2500 using 2×100-bp paired-end reads, and calculated as the total number of nonsynonymous missense mutations in the tumor. For exploratory analyses, patients were divided into 3 subgroups based on TMB tertile.

[4] = exploratory subgroup with ≥50% PD-L1 expression
[5] = patients with high TMB (upper tertile)
[6] = patients with ≥5% PD-L1 expression
[7] = ≥5% PD-L1 expression, responders

With Nivolumab the “Complete or partial response” value ([1]; TMB High) was 22 (46.8) n (%), the Progressive disease ([1]; TMB High) was 7 (14.9) n (%) and the “Response could not be determined” value ([1]; TMB High) was 3 (6.4) n (%). For the same substance, the Stable disease ([1]; TMB High) was 15 (31.9) n (%), the “Complete or partial response” value ([1]; TMB Low) was 11 (17.7) n (%) and the Progressive disease ([1]; TMB Low) was 21 (33.9) n (%). For the same substance, the “Response could not be determined” value ([1]; TMB Low) was 5 (8.1) n (%), the Stable disease ([1]; TMB Low) was 25 (40.3) n (%) and the “Complete or partial response” value ([1]; TMB Low/medium (pooled)) was 25 (22.5) n (%). For the same substance, the Progressive disease ([1]; TMB Low/medium (pooled)) was 32 (28.9) n (%), the “Response could not be determined” value ([1]; TMB Low/medium (pooled)) was 9 (8.1) n (%) and the Stable disease ([1]; TMB Low/medium (pooled)) was 45 (40.5) n (%). The “Complete or partial response” value ([1]; TMB Medium) was 14 (28.6) n (%), the Progressive disease ([1]; TMB Medium) was 11 (22.4) n (%) and the “Response could not be determined” value ([1]; TMB Medium) was 4 (8.2) n (%). For the same substance, the Stable disease ([1]; TMB Medium) was 20 (40.8) n (%), the ORR [1, 4] was 34.1% and the “OS hazard ratio, nivolumab versus chemotherapy” value [1, 4] was 0.90. The “PFS hazard ratio, nivolumab versus chemotherapy” value (shortened to “PFS hazard ratio”) [1, 4] was 1.07, the “median PFS” value ([1]; patients with high TMB) was 9.7 months and the “PFS hazard ratio” value [1, 5] was 0.62. For the same substance, the “objective response rate (ORR)” value [1, 5] was 46.8%, the “OS hazard ratio, nivolumab versus chemotherapy” value [1, 6] was 1.02 and the “Objective response, % of patients (95% CI)” value [1, 6] was 26.1 (20.3-32.5) %. For the same substance, the “Objective response, No. of patients” value [1, 6] was 55, the “PFS hazard ratio” value [1, 6] was 1.15 and the “median OS” value [1, 6] was 14.4 months. The “median PFS” value [1, 6] was 4.2 months, the “Objective response, % of patients (95% CI)” value ([1]; patients with ≥5% PD-L1 expression, listed as nivolumab) was 26.1% and the “Best overall response: Complete response” value ([1]; ≥5% PD-L1 expression) was 4 (1.9) no. (%). The “Best overall response: Could not be determined” value ([1]; ≥5% PD-L1 expression) was 17 (8.1) no. (%), the “Best overall response: Partial response” value ([1]; ≥5% PD-L1 expression) was 51 (24.2) no. (%) and the “Best overall response: Progressive disease” value ([1]; ≥5% PD-L1 expression) was 58 (27.5) no. (%). For the same substance, the “Best overall response: Stable disease” value ([1]; ≥5% PD-L1 expression) was 81 (38.4) no. (%), the “Proportion of patients with a best response of progressive disease” value ([1]; ≥5% PD-L1 expression) was 27.5% and the “Objective response, estimated odds ratio (95% CI)” value ([1]; ≥5% PD-L1 expression, nivolumab versus chemotherapy) was 0.70 (0.46-1.06). For the same substance, the “Duration of response, median” value [1, 7] was 12.1 mo, the “Time to response, median” value [1, 7] was 2.8 mo and the “Time to response, range” value [1, 7] was 1.2-13.2 mo. The “Treatment-related adverse events: Any event” value ([2]; Grade 3-4) was 47 (17.6) n (%), the “Not continuing in the treatment period: Study drug toxicity” value ([2]; in vivo) was 27 (10.1) n (%) and the “Treatment-related AEs leading to discontinuation of study drug” value ([2]; in vivo) was 9.7%. The “Treatment-related adverse events leading to discontinuation: Adrenal insufficiency” value ([2]; in vivo) was 1 (0.4) n (%), the “Treatment-related adverse events leading to discontinuation: Alanine aminotransferase increased” value ([2]; in vivo) was 5 (1.9) n (%) and the “Treatment-related adverse events leading to discontinuation: Aphasia” value ([2]; in vivo) was 1 (0.4) n (%). The “Treatment-related adverse events leading to discontinuation: Aspartate aminotransferase increased” value ([2]; in vivo) was 5 (1.9) n (%), the “Treatment-related adverse events leading to discontinuation: Cholestasis” value ([2]; in vivo) was 1 (0.4) n (%) and the “Treatment-related adverse events leading to discontinuation: Colitis” value ([2]; in vivo) was 2 (0.7) n (%). For the same substance, the “Treatment-related adverse events leading to discontinuation: Confused state” value ([2]; in vivo) was 1 (0.4) n (%), the “Treatment-related adverse events leading to discontinuation: Hypersensitivity” value ([2]; in vivo) was 1 (0.4) n (%) and the “Treatment-related adverse events leading to discontinuation: Interstitial lung disease” value ([2]; in vivo) was 1 (0.4) n (%). For the same substance, the “Treatment-related adverse events leading to discontinuation: Multiple organ dysfunction” value ([2]; in vivo) was 1 (0.4) n (%), the “Treatment-related adverse events leading to discontinuation: Nausea” value ([2]; in vivo) was 1 (0.4) n (%) and the “Treatment-related adverse events leading to discontinuation: Pericardial effusion malignant” value ([2]; in vivo) was 1 (0.4) n (%). For the same substance, the “Treatment-related adverse events leading to discontinuation: Pneumonitis” value ([2]; in vivo) was 3 (1.1) n (%), the “Treatment-related adverse events leading to discontinuation: Rash” value ([2]; in vivo) was 1 (0.4) n (%) and the “Treatment-related adverse events leading to discontinuation: Rash maculopapular” value ([2]; in vivo) was 1 (0.4) n (%). The “Treatment-related adverse events leading to discontinuation: Rash papular” value ([2]; in vivo) was 1 (0.4) n (%), the “Treatment-related adverse events leading to discontinuation: Stevens-Johnson syndrome” value ([2]; in vivo) was 1 (0.4) n (%) and the “Treatment-related adverse events leading to discontinuation: Transaminases increased” value ([2]; in vivo) was 1 (0.4) n (%). For the same substance, the “Treatment-related adverse events: Any event” value ([2]; in vivo) was 190 (71.2) n (%), the “Treatment-related adverse events: Leukopenia” value ([2]; in vivo) was 0 n (%) and the “Treatment-related adverse events: Neutropenia” value ([2]; in vivo) was 0 n (%). For the same substance, the “Treatment-related adverse events: Neutrophil count decreased” value ([2]; in vivo) was 1 (0.4) n (%), the “Treatment-related serious adverse events: Anemia” value ([2]; in vivo) was 0 n (%) and the “Treatment-related serious adverse events: Aspartate aminotransferase increased” value ([2]; in vivo) was 6 (2.2) n (%). For the same substance, the “Treatment-related serious adverse events: Febrile neutropenia” value ([2]; in vivo) was 0 n (%), the “Treatment-related serious adverse events: Thrombocytopenia” value ([2]; in vivo) was 0 n (%) and the ORR [3] was 11.4%.
